Source: patent US20170210738A1, “GLUCOSE TRANSPORT INHIBITORS” (Bayer Pharma Aktiengesellschaft, priority 2014, published 2017)

Target: T1, GLUT1 (Homo sapiens, UniProt P11166)
T1 construct: endogenous in cells; host or cells: DLD1 or CHO-K1
T1 sequence (P11166 1-492): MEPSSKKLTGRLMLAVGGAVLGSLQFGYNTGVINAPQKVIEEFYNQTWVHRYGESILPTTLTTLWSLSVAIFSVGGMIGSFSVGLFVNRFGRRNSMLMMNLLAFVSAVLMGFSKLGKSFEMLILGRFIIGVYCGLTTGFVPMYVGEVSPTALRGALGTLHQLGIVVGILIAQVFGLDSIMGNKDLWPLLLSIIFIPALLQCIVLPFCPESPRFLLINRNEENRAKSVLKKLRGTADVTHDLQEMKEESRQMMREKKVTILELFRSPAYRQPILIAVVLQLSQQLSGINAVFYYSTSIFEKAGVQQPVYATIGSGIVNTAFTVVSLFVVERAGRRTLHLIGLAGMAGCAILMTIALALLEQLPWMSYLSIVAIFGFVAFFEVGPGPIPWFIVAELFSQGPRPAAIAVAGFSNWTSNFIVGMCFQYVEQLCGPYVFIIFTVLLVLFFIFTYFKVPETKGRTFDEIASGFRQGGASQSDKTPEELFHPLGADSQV
Experiment: Indirect measurement of GLUT activity by quantification of intracellular ATP levels: glucose induced ATP increase (GLUT1 inhibition)
Type: cell-based
Conditions: DLD1 cells; 1 mM glucose, 1 uM Rotenone, 15 min; CellTiter-Glo ATP levels; IC50 values standardized to cytochalasin B IC50 values; read-out: IC50 regarding glucose induced ATP increase (GLUT1 inhibition)
Source text: Indirect Measurement of GLUT Activity by Quantification of Intracellular ATP Levels
It is well known that a combination of small-molecule inhibitors of mitochondrial electron transport chain and glucose catabolism synergistically suppress ATP production and impair cellular viability (Ulanovskaya et al., 2008, 2011; Liu, et al. 2001). We therefore used DLD1 or CHO-K1 cells in combination with an oxidative phosphorylation inhibitor to identify GLUT inhibitors. Cell lines were maintained in DMEM medium supplemented with 10% FCS and 1% Penicillin-Streptomycin solution and 2% Glutamax. The cells were treated with trypsin and seeded into 384 plates at a density of 4000 cells/well. The cells were then cultured overnight in glucose free media containing 1% FCS to reduce intracellular ATP levels. After 24 h the cells were incubated at 37° C. containing the appropriate glucose or in case of GLUT2 fructose concentration (1 mM and 30 mM respectively) with or without compounds and 1 uM Rotenone for 15 min. The CellTiter-Glo® Luminescent Cell Viability Assay from Promega was then used to measure ATP levels. Compounds able to reduce the ATP levels within 15 min of glucose application were considered to be glucose uptake inhibitors.

| Structure (SMILES) | IC50 |
| --- | --- |
| Cc1c(NC(=O)c2cc(C(N)=O)nc3ccccc23)cnn1Cc1ccccc1C#N [Example 15, N^4-[1-(2-cyanobenzyl)-5-methyl-1H-pyrazol-4-yl]quinoline-2,4-dicarboxamide] | 755 nM |
| Cc1c(NC(=O)c2cc(C(N)=O)nc3ccccc23)cnn1Cc1ccn(C)n1 [Example 34, N^4-{5-methyl-1-[(1-methyl-1H-pyrazol-3-yl)methyl]-1H-pyrazol-4-yl}quinoline-2,4-dicarboxamide] | 753 nM |
| Cc1c(NC(=O)c2cc(C3CC3)nc3ccc(F)cc23)cnn1Cc1ccc(F)cc1 [Example 6, 2-cyclopropyl-6-fluoro-N-[1-(4-fluorobenzyl)-5-methyl-1H-pyrazol-4-yl]quinoline-4-carboxamide] | 91 nM |
| CCc1noc(Cn2ncc(NC(=O)c3cc(C(N)=O)nc4ccccc34)c2C)n1 [Example 37, N^4-{1-[(3-ethyl-1,2,4-oxadiazol-5-yl)methyl]-5-methyl-1H-pyrazol-4-yl}quinoline-2,4-dicarboxamide] | 1920 nM |
| NC(=O)c1c(NC(=O)c2cc(C(F)(F)F)nc3ccc(Br)cc23)cnn1Cc1ccc(F)cc1 [Example 18, 6-bromo-N-[5-carbamoyl-1-(4-fluorobenzyl)-1H-pyrazol-4-yl]-2-(trifluoromethyl)quinoline-4-carboxamide] | 1250 nM |
| CCc1c(NC(=O)c2cc(C(N)=O)nc3ccccc23)cnn1Cc1ccc(C#N)cc1 [Example 31, N^4-[1-(4-cyanobenzyl)-5-ethyl-1H-pyrazol-4-yl]quinoline-2,4-dicarboxamide] | 201 nM |
| Cc1cc(Cn2ncc(NC(=O)c3cc(C(F)(F)F)nc4ccc(Br)cc34)c2C)no1 [Example 42, 6-bromo-N-{5-methyl-1-[(5-methyl-1,2-oxazol-3-yl)methyl]-1H-pyrazol-4-yl}-2-(trifluoromethyl)quinoline-4-carboxamide] | 1130 nM |
| Cc1c(NC(=O)c2cc(C(F)(F)F)nc3ccc(Br)cc23)cnn1Cc1ccn(C)n1 [Example 44, 6-bromo-N-{5-methyl-1-[(1-methyl-1H-pyrazol-3-yl)methyl]-1H-pyrazol-4-yl}-2-(trifluoromethyl)quinoline-4-carboxamide] | 531 nM |
| Cc1c(NC(=O)c2cc(C(N)=O)nc3cc(F)ccc23)cnn1Cc1ccc(C#N)cc1 [Example 24, N^4-[1-(4-cyanobenzyl)-5-methyl-1H-pyrazol-4-yl]-7-fluoroquinoline-2,4-dicarboxamide] | 7.1 nM |
| CCS(=O)(=O)N1CCC(Cn2ncc(NC(=O)c3cc(C(F)(F)F)nc4ccc(Br)cc34)c2C)CC1 [Example 38, 6-bromo-N-(1-{[1-(ethylsulfonyl)piperidin-4-yl]methyl}-5-methyl-1H-pyrazol-4-yl)-2-(trifluoromethyl)quinoline-4-carboxamide] | 615 nM |
| Cc1c(NC(=O)c2cc(C(F)(F)F)nc3c(Cl)cc(Cl)cc23)cnn1Cc1ccc(F)cc1 [Example 7, 6,8-dichloro-N-[1-(4-fluorobenzyl)-5-methyl-1H-pyrazol-4-yl]-2-(trifluoromethyl)quinoline-4-carboxamide] | 185 nM |
| Cc1c(NC(=O)c2cc(C(F)(F)F)nc3ccc(Br)cc23)cnn1Cc1ccccc1C#N [Example 14, 6-bromo-N-[1-(2-cyanobenzyl)-5-methyl-1H-pyrazol-4-yl]-2-(trifluoromethyl)quinoline-4-carboxamide] | 173 nM |
| COC(=O)c1c(NC(=O)c2cc(C(F)(F)F)nc3ccc(Br)cc23)cnn1Cc1ccc(C#N)cc1 [Example 19, methyl 4-({[6-bromo-2-(trifluoromethyl)quinolin-4-yl]carbonyl}amino)-1-(4-cyanobenzyl)-1H-pyrazole-5-carboxylate] | 1070 nM |
| CCS(=O)(=O)N1CCC(Cn2ncc(NC(=O)c3cc(C(N)=O)nc4ccccc34)c2C)CC1 [Example 43, N^4-(1-{[1-(ethylsulfonyl)piperidin-4-yl]methyl}-5-methyl-1H-pyrazol-4-yl)quinoline-2,4-dicarboxamide] | 396 nM |
| CNC(=O)c1c(NC(=O)c2cc(C(F)(F)F)nc3ccc(Br)cc23)cnn1Cc1ccc(C#N)cc1 [Example 21, 6-bromo-N-[1-(4-cyanobenzyl)-5-(methylcarbamoyl)-1H-pyrazol-4-yl]-2-(trifluoromethyl)quinoline-4-carboxamide] | 3960 nM |
| Cc1c(NC(=O)c2cc(C(N)=O)nc3ccccc23)cnn1Cc1ccc(C#N)cc1 [Example 9, N^4-[1-(4-cyanobenzyl)-5-methyl-1H-pyrazol-4-yl]quinoline-2,4-dicarboxamide] | 8.9 nM |
| CNC(=O)c1nc(Cn2ncc(NC(=O)c3cc(C(F)(F)F)nc4ccc(Br)cc34)c2C)no1 [Example 40, 6-bromo-N-(5-methyl-1-{[5-(methylcarbamoyl)-1,2,4-oxadiazol-3-yl]methyl}-1H-pyrazol-4-yl)-2-(trifluoromethyl)quinoline-4-carboxamide] | 456 nM |

The remaining molecules from weak to strong by IC50, led by results:

| IC50 | Structure (SMILES) |
| --- | --- |
| 2150 nM | Cc1c(NC(=O)c2cc(C(N)=O)nc3ccccc23)cnn1Cc1ccncc1 [Example 29, N^4-[5-methyl-1-(pyridin-4-ylmethyl)-1H-pyrazol-4-yl]quinoline-2,4-dicarboxamide] |
| 517 nM | Cc1nc(Cn2ncc(NC(=O)c3cc(C(N)=O)nc4ccccc34)c2C)cs1 [Example 39, N^4-{5-methyl-1-[(2-methyl-1,3-thiazol-4-yl)methyl]-1H-pyrazol-4-yl}quinoline-2,4-dicarboxamide] |
| 387 nM | N#Cc1ccc(Cn2ncc(NC(=O)c3cc(C(F)(F)F)nc4ccc(Br)cc34)c2C(N)=O)cc1 [Example 22, 6-bromo-N-[5-carbamoyl-1-(4-cyanobenzyl)-1H-pyrazol-4-yl]-2-(trifluoromethyl)quinoline-4-carboxamide] |
| 349 nM | Cc1c(NC(=O)c2cc(C(N)=O)nc3ccccc23)cnn1CC1CCCCC1 [Example 28, N^4-[1-(cyclohexylmethyl)-5-methyl-1H-pyrazol-4-yl]quinoline-2,4-dicarboxamide] |
| 46 nM | CCc1c(NC(=O)c2cc(C(N)=O)nc3cc(F)ccc23)cnn1Cc1ccc(C#N)cc1 [Example 30, N^4-[1-(4-cyanobenzyl)-5-ethyl-1H-pyrazol-4-yl]-7-fluoroquinoline-2,4-dicarboxamide] |
| 19 nM | COc1ccc(Cn2ncc(NC(=O)c3cc(OC)nc4ccccc34)c2C)cc1 [Example 11, 2-methoxy-N-[1-(4-methoxybenzyl)-5-methyl-1H-pyrazol-4-yl]quinoline-4-carboxamide] |
| 18 nM | Cc1c(NC(=O)c2cc(C(N)=O)nc3ccccc23)cnn1Cc1ccc(F)cc1 [Example 5, N^4-[1-(4-fluorobenzyl)-5-methyl-1H-pyrazol-4-yl]quinoline-2,4-dicarboxamide] |
| 12 nM | Cc1c(NC(=O)c2cc(C(F)(F)F)nc3ccc(Br)cc23)cnn1Cc1ccc(F)cc1 [Example 4, 6-bromo-N-[1-(4-fluorobenzyl)-5-methyl-1H-pyrazol-4-yl]-2-(trifluoromethyl)quinoline-4-carboxamide] |
| 6.5 nM | Cc1c(NC(=O)c2cc(C(N)=O)nc3cc(F)c(Cl)cc23)cnn1Cc1ccc(C#N)cc1 [Example 25, 6-chloro-N^4-[1-(4-cyanobenzyl)-5-methyl-1H-pyrazol-4-yl]-7-fluoroquinoline-2,4-dicarboxamide] |
| 2.2 nM | COc1ccc(Cn2ncc(NC(=O)c3cc(C(N)=O)nc4ccccc34)c2C)cc1 [Example 13, N^4-[1-(4-methoxybenzyl)-5-methyl-1H-pyrazol-4-yl]quinoline-2,4-dicarboxamide] |
